Key:
Assay in all cases: Test C pre/postemergence
Format in all cases: in vivo
[1] = system: woolly cupgrass (Eriochloa villosa); conditions: Postemergence
Summary of the method: (§1)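 Visual injury ratings, 0 (no effect) to 100 (complete control), made 12 to 14 days after treatment by comparison with untreated controls. Greenhouse plants received test chemical in a surfactant-containing non-phytotoxic solvent, either preemergence on planted seeds or postemergence at the 1- to 4-leaf stage.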

[2] = system: crabgrass (Digitaria sanguinalis); conditions: Postemergence
Summary of the method: as §1

[3] = system: bermudagrass (Cynodon dactylon); conditions: Postemergence; for Bermudagrass plant response rating: scale 0 to 100 (0 no effect, 100 complete control)
Summary of the method: as §1

[4] = system: goosegrass (Eleusine indica); conditions: Postemergence
Summary of the method: as §1

[5] = system: johnsongrass (Sorghum halepense); conditions: Postemergence
Summary of the method: as §1

[6] = system: morningglory (Ipomoea coccinea); conditions: Postemergence
Summary of the method: as §1

[7] = system: giant foxtail (Setaria faberii); conditions: Postemergence
Summary of the method: as §1

[8] = system: soybean (Glycine max); conditions: Postemergence
Summary of the method: as §1

[9] = system: Surinam grass (Brachiaria decumbens); conditions: Postemergence
Summary of the method: as §1

[10] = system: pigweed (Amaranthus retroflexus); conditions: Postemergence
Summary of the method: as §1

[11] = system: kochia (Kochia scoparia); conditions: Postemergence
Summary of the method: as §1

[12] = 125 g ai/ha, scale 0 to 100 (0 no effect, 100 complete control)

SMILES: CCOC(=O)c1nc(-c2ccc(I)cc2)nc(N)c1Cl [Compound 133]
- Plant response rating (scale of 0 to 100), Cupgrass, Woolly ([1]; 16 g ai/ha): 35
- Plant response rating (scale of 0 to 100), Cupgrass, Woolly ([1]; 31 g ai/ha): 50
- Plant response rating (scale of 0 to 100), Cupgrass, Woolly ([1]; 62 g ai/ha): 60
- Cupgrass, Woolly plant response rating [1, 12]: 70
- Plant response rating (scale of 0 to 100), Crabgrass ([2]; 16 g ai/ha): 50
- Plant response rating (scale of 0 to 100), Crabgrass ([2]; 31 g ai/ha): 75
- Plant response rating (scale of 0 to 100), Crabgrass ([2]; 62 g ai/ha): 75
- Crabgrass plant response rating [2, 12]: 80
- Plant response rating (scale of 0 to 100), Bermudagrass ([3]; 16 g ai/ha): 50
- Plant response rating (scale of 0 to 100), Bermudagrass ([3]; 31 g ai/ha): 85
- Bermudagrass plant response rating ([3]; 62 g ai/ha): 85
- Bermudagrass plant response rating ([3]; 125 g ai/ha): 85
- Plant response rating (scale of 0 to 100), Goosegrass ([4]; 16 g ai/ha): 15
- Plant response rating (scale of 0 to 100), Goosegrass ([4]; 31 g ai/ha): 55
- Plant response rating (scale of 0 to 100), Goosegrass ([4]; 62 g ai/ha): 65
- Goosegrass plant response rating [4, 12]: 70
- Plant response rating (scale of 0 to 100), Johnsongrass ([5]; 16 g ai/ha): 70
- Plant response rating (scale of 0 to 100), Johnsongrass ([5]; 31 g ai/ha): 85
- Plant response rating (scale of 0 to 100), Johnsongrass ([5]; 62 g ai/ha): 90
- Johnsongrass plant response rating [5, 12]: 95
- Plant response rating (scale of 0 to 100), Morningglory ([6]; 16 g ai/ha): 80
- Plant response rating (scale of 0 to 100), Morningglory ([6]; 31 g ai/ha): 90
- Plant response rating (scale of 0 to 100), Morningglory ([6]; 62 g ai/ha): 100
- Morningglory plant response rating [6, 12]: 100
- Plant response rating (scale of 0 to 100), Foxtail, Giant ([7]; 16 g ai/ha): 15
- Plant response rating (scale of 0 to 100), Foxtail, Giant ([7]; 31 g ai/ha): 60
- Plant response rating (scale of 0 to 100), Foxtail, Giant ([7]; 62 g ai/ha): 70
- Foxtail, Giant plant response rating [7, 12]: 75
- Plant response rating (scale of 0 to 100), Soybean ([8]; 16 g ai/ha): 95
- Plant response rating (scale of 0 to 100), Soybean ([8]; 31 g ai/ha): 95
- Plant response rating (scale of 0 to 100), Soybean ([8]; 62 g ai/ha): 100
- Soybean plant response rating [8, 12]: 100
- Plant response rating (scale of 0 to 100), Surinam Grass ([9]; 16 g ai/ha): 35
- Plant response rating (scale of 0 to 100), Surinam Grass ([9]; 31 g ai/ha): 45
- Plant response rating (scale of 0 to 100), Surinam Grass ([9]; 62 g ai/ha): 55
- Surinam Grass plant response rating [9, 12]: 70
- Plant response rating (scale of 0 to 100), Pigweed ([10]; 16 g ai/ha): 85
- Plant response rating (scale of 0 to 100), Pigweed ([10]; 31 g ai/ha): 85
- Plant response rating (scale of 0 to 100), Pigweed ([10]; 62 g ai/ha): 95
- Pigweed plant response rating [10, 12]: 100
- Plant response rating (scale of 0 to 100), Kochia ([11]; 16 g ai/ha): 75
- Plant response rating (scale of 0 to 100), Kochia ([11]; 31 g ai/ha): 80
- Plant response rating (scale of 0 to 100), Kochia ([11]; 62 g ai/ha): 85
- Kochia plant response rating [11, 12]: 85

Reference: US8802597B2, “Herbicidal pyrimidines” (E I du Pont de Nemours and Company, priority 2003, dated 2014)
